Measured values taken from patent US6479515B1, “Heterocyclic benzenesulphonamide compounds as bradykinine antagonists” (Fournier Industrie et Sante, priority 1999, dated 2002).
Where a name gives a salt, the structure may show the parent alone. Read-outs that look alike come from different tables or passages of the source.

Columns and labels:
[1] = target: T1, human B2 receptor (Homo sapiens, UniProt P30411); assay: competitive binding test on CHO cell membranes expressing the human B2 receptor using [3H]-bradykinin as ligand
T1 construct: expressed in transfected cells; host or cells: CHO cells (membranes)
T1 sequence (P30411 1-391): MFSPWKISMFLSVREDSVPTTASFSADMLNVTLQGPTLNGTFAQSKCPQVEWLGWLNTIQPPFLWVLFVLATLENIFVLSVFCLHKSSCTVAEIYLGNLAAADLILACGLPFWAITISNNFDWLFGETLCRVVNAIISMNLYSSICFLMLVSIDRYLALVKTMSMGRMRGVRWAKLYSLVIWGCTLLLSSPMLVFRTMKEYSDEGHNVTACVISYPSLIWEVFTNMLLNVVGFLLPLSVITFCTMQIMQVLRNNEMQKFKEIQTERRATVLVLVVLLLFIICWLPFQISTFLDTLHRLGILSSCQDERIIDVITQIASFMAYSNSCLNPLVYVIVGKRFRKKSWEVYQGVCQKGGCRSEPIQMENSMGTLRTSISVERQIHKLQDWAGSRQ
Experimental: The activity of the products according to the invention was evaluated, according to a first aspect, as a function of their aptitude to bind to the bradykinin B2 receptors. […] It is likewise known that bradykinin is amongst one of the most powerful algesic agents known. The mode of action of kinins and more particularly of bradykinin makes a coupling of the peptides to the two types of receptors called B1 and B2 respectively take place. The B2 receptor belongs to the large family of receptors with seven transmembrane domains coupled to the G proteins and seems to be more particularly involved in the field of the pathologies mentioned above. This is the reason why the products of the invention, which have the property of being able to bind to the B2 receptor, inhibit the binding of bradykinin and, consequently, suppress its harmful activity. The test employed in order to measure this property is a competitive binding test on CHO cell membranes expressing the human B2 receptor using bradykinin labelled with tritium ([^3H]-bradykinin) as ligand.
The results are expressed by the Ki value, as calculated according to the recommended method with the description of the test employed and described according to D. Pruneau et al., in Br. J. Pharmacol. 1998, 125 p 365-372.

[2] = target: T2, bradykinin B2 receptor (Homo sapiens, UniProt P30411); assay: inhibition of the contraction of the isolated human umbilical vein in the presence of bradykinin; type: cell-based
T2 construct: from tissue; host or cells: isolated human umbilical vein
T2 sequence (P30411 1-391): T1 sequence (P30411 1-391)
Description: This antagonist character is expressed by the value pA2, calculated according to a biological test employed in order to measure the inhibition of the contraction of the isolated human umbilical vein by the compounds according to the invention in the presence of bradykinin. The test procedure and the method of calculation of pA2 are described in the articles of D. Pruneau et al. published in Br. J. Pharmacol. 1998, 125, p 365-372 and J L. Paquet et al. Br. J. Pharmacol. 1999, 126 (in print).

[3] = isolated human umbilical vein, contraction in the presence of bradykinin, read-out: pA2 (converted)
[4] = isolated human umbilical vein, contraction in the presence of bradykinin

Row | Kb [2, 3] | Molecule | Ki [1] | pA2 [2, 4] | Kb [2]
1 | 5.01 nM | Cc1cc(-n2ccnc2)c2cccc(OCc3c(Cl)ccc(S(=O)(=O)N4CCC[C@H]4C(=O)NCC4CCN(Cc5ccccn5)CC4)c3Cl)c2n1 [Example 109, 1-[[2,4-Dichloro-3-[[[4-(1H-imidazol-1-yl)-2-methyl-8-quinolinyl]oxy]methyl]-phenyl]sulphonyl]-N-[[1-(2-pyridinylmethyl)-4-piperidinyl]methyl]-2(S)-pyrrolidinecarboxamide, methanesulphonate] | 15 nM | – | –
2 | – | 1-[[2,4-Dichloro-3-[[[4-(1H-imidazol-1-yl)-2-methyl-8-quinolinyl]oxy]methyl]-phenyl]sulphonyl]-N-[2-(4-morpholinyl)ethyl]-2(S)-pyrrolidinecarboxamide, hemisulphate [Example 48] | 32 nM | 8.5 | –
3 | – | Cc1cc(-n2ccnc2)c2cccc(OCc3c(Cl)ccc(S(=O)(=O)N4CC[C@@H](O)C4)c3Cl)c2n1 [Example 170, 1-[[2,4-Dichloro-3-[[[4-(1H-imidazol-1-yl)-2-methyl-8-quinolinyl]oxy]methyl]-phenyl]sulphonyl]-3(R)-pyrrolidinol, tartrate] | 7.8 nM | – | 10 nM
4 | 5.01 nM | Cc1cc(-n2ccnc2)c2cccc(OCc3c(Cl)ccc(S(=O)(=O)N4C[C@H](O)C[C@H]4C(=O)NCC4CCNCC4)c3Cl)c2n1 [Example 42, 1-[[2,4-Dichloro-3-[[[4-(1H-imidazol-1-yl)-2-methyl-8-quinolinyl]oxy]methyl]-phenyl]sulphonyl]-4(R)-hydroxy-N-(4-piperidinemethyl)-2(S)-pyrrolidine-carboxamide, ditartrate] | 77 nM | – | –
5 | – | 1-[[2,4-Dichloro-3-[[[4-(1H-imidazol-1-yl)-2-methyl-8-quinolinyl]oxy]methyl]-phenyl]sulphonyl]-N-[3-(dimethylamino)propyl]-N-methyl-2(S)-pyrrolidine-carboxamide, hemisulphate [Example 61] | 21 nM | 8.1 | –
6 | – | Cc1cc(-n2ccnc2)c2cccc(OCc3c(Cl)ccc(S(=O)(=O)N4CCC[C@H]4C(=O)NCC4CCN(CCC(=O)O)CC4)c3Cl)c2n1 [Example 115, 4-[[[[1-[[2,4-Dichloro-3-[[[4-(1H-imidazol-1-yl)-2-methyl-8-quinolinyl]oxy]-methyl]phenyl]sulphonyl]-2(S)-pyrrolidinyl]carbonyl]amino]methyl]-1-piperidinepropanoic acid, tartrate] | 35 nM | – | 3.16 nM
7 | – | Cc1cc(-n2ccnc2)c2cccc(OCc3c(Cl)ccc(S(=O)(=O)N4CCC[C@H]4C(=O)NCC4CCN(CCOCCO)CC4)c3Cl)c2n1 [Example 12, 1-[[2,4-Dichloro-3-[[[4-(1H-imidazol-1-yl)-2-methyl-8-quinolinyl]oxy]methyl]-phenyl]sulphonyl]-N-[[1-[2-(2-hydroxyethoxy)ethyl]-4-piperidinyl]methyl]-2(S)-pyrrolidinecarboxamide, tartrate] | 0.47 nM | – | 2 nM
8 | 6.31 nM | Cc1cc(-n2cncn2)c2cccc(OCc3c(Cl)ccc(S(=O)(=O)N4CCC[C@H]4C(=O)NCC4CCN(CCO)CC4)c3Cl)c2n1 [Example 166, 1-[[2,4-Dichloro-3-[[[2-methyl-4-(1H-1,2,4-triazol-1-yl)-2-methyl-8-quinolinyl]oxy]methyl]phenyl]sulphonyl]-N-[[1-(2-(hydroxyethyl)-4-piperidinyl]methyl]-2(S)-pyrrolidinecarboxamide, methanesulphonate] | 5.8 nM | – | –
9 | – | Cc1cc(-n2ccnc2)c2cccc(OCc3c(Cl)ccc(S(=O)(=O)N4CCC[C@H]4C(=O)NCC4CCNCC4)c3Cl)c2n1 [Example 10, 1-[[2,4-Dichloro-3-[[[4-(1H-imidazol-1-yl)-2-methyl-8-quinolinyl]oxy]methyl]-phenyl]sulphonyl]-N-(4-piperidinylmethyl)-2(S)-pyrrolidinecarboxamide, ditartrate] | 1 nM | – | 3.16 nM
